According to article PMC8705538, “Discovery of SARS-CoV-2 Nsp14 and Nsp16 Methyltransferase Inhibitors by High-Throughput Virtual Screening” (Pharmaceuticals, 2021):
Where two headings read alike, the source gives them in different places.

Experiments:
[1] = biological target: SARS-CoV-2 nsp16/nsp10 (Severe acute respiratory syndrome coronavirus 2, UniProt P0DTD1); assay: biochemical; conditions: for Ligand Efficiency (LE) nsp16: estimated from IC50 values
[2] = biological target: T1, human Glycine N-Methyltransferase (GNMT) (Homo sapiens, UniProt Q14749); assay: HTRF methyltransferase selectivity assay, human GNMT; assay type: biochemical; conditions: for Ligand Efficiency (LE) Human (hMtase): estimated from IC50 values
T1 construct: purchased MyBioSource MBS636160
T1 sequence (Q14749 1-295): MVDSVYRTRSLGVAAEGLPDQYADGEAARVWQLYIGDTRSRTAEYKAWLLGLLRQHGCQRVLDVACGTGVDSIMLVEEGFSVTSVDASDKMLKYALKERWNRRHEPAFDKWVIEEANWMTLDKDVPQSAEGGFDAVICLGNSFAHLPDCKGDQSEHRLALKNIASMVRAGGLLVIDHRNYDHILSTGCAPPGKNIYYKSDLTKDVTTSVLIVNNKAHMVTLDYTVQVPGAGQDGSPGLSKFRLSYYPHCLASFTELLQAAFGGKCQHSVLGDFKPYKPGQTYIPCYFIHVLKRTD

[3] = biological target: SARS-CoV-2 nsp14 (Severe acute respiratory syndrome coronavirus 2, UniProt P0DTD1); assay: biochemical; conditions: for Ligand Efficiency (LE) nsp14: estimated from IC50 values
[4] = HTRF, nsp16/nsp10, SAM 10 µM, m7GpppA-RNA, read-out: IC50 nsp16
[5] = HTRF, SAM 10 µM, glycine 5 mM, read-out: IC50 Human (hMtase, human glycine N-methyltransferase)
[6] = HTRF, SAM 10 µM, GpppG 4 µM, read-out: IC50 nsp14

Structure (SMILES) | Percent inhibition at 100 μM, nsp16 [1] [%] | Percent inhibition at 100 μM, Human [2] [%] | Percent inhibition at 100 μM, nsp14 [3] [%] | further results
Cc1ncsc1CCC(=O)N1CCCC(C(=O)c2ccc3c4c(cccc24)CC3)C1 (stereo not drawn) [ZINC000012755219] | 40 ±8 | 61 ±4 | 9 ±5 | 
Nc1ncnc2c1ncn2[C@@H]1O[C@H](C(=O)N2CCN(CC(=O)Nc3cccc4c3CNC4=O)CC2)[C@@H](O)[C@H]1O [ZINC000017654909] | 65 ±7 | 98 ±2 | 62 ±2 | IC50 [1, 4]: 75 ± 4 µM; Ligand Efficiency (LE) nsp16 [1]: 0.586 kJ/mol; IC50 [2, 5]: 22.8 µM; Ligand Efficiency (LE) Human (hMtase) [2]: 0.669 kJ/mol; IC50 [3, 6]: 75 ± 4 µM; Ligand Efficiency (LE) nsp14 [3]: 0.586 kJ/mol
CN(CC1CCN(c2ccccc2)C1)S(=O)(=O)c1ccc2[nH]c(=O)oc2c1 (stereo not drawn) [ZINC000952973746] | 38 ±6 | 41 ±1 | 27 ±9 | 
Nc1ncnc2c1ncn2[C@@H]1O[C@H](CSCC[C@H](N)C(=O)O)[C@@H](O)[C@H]1O [S-(5′-Adenosyl)-L-homocysteine (SAH), S-(5′-Adenosyl)-L-homocysteine, reference compound] |  |  |  | IC50 [1]: 0.28 µM; Ligand Efficiency (LE) nsp16 [1]: 1.34 kJ/mol; IC50 [2]: 1.7 µM; Ligand Efficiency (LE) Human (hMtase) [2]: 1.17 kJ/mol; IC50 [3]: 0.14 µM; Ligand Efficiency (LE) nsp14 [3]: 1.38 kJ/mol
Cc1ccccc1NC(=O)c1nnn2c1NC(C(=O)O)=CC2c1ccc(C(=O)O)cc1 (stereo not drawn) [ZINC000072333096] | 33 ±12 | 17 ±4 | 25 ±10 | 
Cc1cc(=O)[nH]c(NCCNC(=O)c2cc(-c3cccn3C)n[nH]2)n1 [ZINC000091693861] | 24 ±4 | 21 ±6 | 9 ±6 | 
CC(=O)N1N=C(c2ccc3c(c2)OCO3)OC1c1cc(-c2ccccc2)nc2ccccc12 (stereo not drawn) [ZINC000021941344] | 36 ±10 | 45 ±7 | 12 ±4 | 
CN(CCNc1nc2c(c(=O)[nH]1)Cc1ccccc1OC2)S(C)(=O)=O [Compound 028-736-920] | -4 ±3 | 42 ±2 | 8 ±5 | 
CC(=O)N1N=C(c2ccc3c(c2)OCO3)CC1c1cn(-c2ccccc2)nc1C (stereo not drawn) [ZINC000012821397] | 15 ±5 | -5 ±2 | 27 ±5 | 
COc1cc(NC(=O)C2CCN(Cc3nc(-c4cccc(C)c4)no3)CC2)c(OC)cc1Cl [ZINC000030974583] | 45 ±11 | 48 ±8 | 19 ±1 | 
NC(=O)CC[C@H](N)C(=O)NS(=O)(=O)OC[C@H]1O[C@@H](n2cnc3c(N)ncnc32)[C@H](O)[C@@H]1O [ZINC000036477981] | 50 ±11 | 89 ±8 | 20 ±3 | 
CN(Cc1cccc2cnccc12)C(=O)CCC1(CCC(=O)O)CCC(=O)N1 (stereo not drawn) [ZINC000220483024] | 31 ±6 | 16 ±4 | -5 ±3 | 
CCN(CCSc1ccccc1)C(=O)c1cc(-c2ccncc2)n[nH]1 [ZINC000097636636] | 19 ±7 | -46 ±2 | 5 ±2 | 
CC(C(=O)NCCCn1ccnn1)c1n[nH]c(=O)c2ccccc12 (stereo not drawn) [ZINC000215108606] | 40 ±6 | 22 ±6 | 9 ±3 | 
O=C(CCCn1cnc2ccccc2c1=O)Nc1ccc2ncnc(O)c2c1 [ZINC000096114839] | 17 ±5 | 83 ±6 | 28 ±7 | 
CC(C)(C)c1csc(SCC(=O)Nc2cccc3nsnc23)n1 [Compound 009-639-090] | 43 ±7 | 61 ±9 | 16 ±1 | 
NC1=NC(c2ccccc2)n2c(nc(=O)c3ccccc32)N1 (stereo not drawn) [ZINC000008994271] | 39 ±3 | -3 ±6 | 19 ±10 | 
Nc1ncnc2c1ncn2[C@@H]1O[C@H](C(=O)NC2CC2)[C@@H](O)[C@H]1O [ZINC000004475116] | 54 ±10 | 56 ±1 | 32 ±6 | 
Nc1ncnc2c1ncn2[C@@H]1O[C@H](COC(=O)c2ccc(S(=O)(=O)F)cc2)[C@@H](O)[C@H]1O [ZINC000048222133] | 42 ±6 | 87 ±1 | 58 ±2 | IC50 [1, 4]: 105 ± 6 µM; Ligand Efficiency (LE) nsp16 [1]: 0.711 kJ/mol; IC50 [2, 5]: 25.3 µM; Ligand Efficiency (LE) Human (hMtase) [2]: 0.837 kJ/mol; IC50 [3, 6]: 53 ± 3 µM; Ligand Efficiency (LE) nsp14 [3]: 0.795 kJ/mol
